Laboratory results published in paper PMC11507974, “Phytochemical Analysis, Antioxidant Activity and Bioassay-Guided Isolation of Acetylcholinesterase and Butyrylcholinesterase Inhibitors from Horsfieldia polyspherula Bark (Myristicaceae)” (Tropical Life Sciences Research, 2024).
Like-named read-outs stand apart in the source and are kept apart here.

Columns and labels:
DPPH radical scavenging = details: 15 min incubation, 517 nm
Method: The free radical scavenging activity of the samples was determined using 1,1-diphenyl-2 picrylhydrazyl (DPPH) assay as described with minor modification ([Chua et al. 2013]). The DPPH solution was prepared by dissolving 3.0 mg of DPPH in 150 mL of methanol to afford 20 μg/mL. A 750 μL of the sample’s solution at different concentrations, ranging from 1.25 mg/mL to 40 mg/mL was added to 1,500 μL of DPPH solution. The absorbance was recorded at 517 nm using Shimadzu UV-2600 UV-Vis spectrophotometer after 15 min of incubation at room temperature. Ascorbic acid was used as the positive control, while methanol was used as negative control for scanning the background. The ability to scavenge the DPPH was calculated using Equation 2:
(2) DPPH radical scavenging activity (%)=Abs control-Abs sample/Abs control×100
where Abs control is the absorbance of DPPH while Abs sample is the absorbance of the sample. […] All experiments were performed in triplicates.

[1] = target: T1, AChE from Electrophorus electricus (electric eel) Type V-S (Electrophorus electricus, UniProt O42275); experiment: biochemical; format: biochemical; details: for SI (selectivity index for AChE): IC50 (BuChE)/ IC50 (AChE)
T1 construct: purified AChE from Electrophorus electricus (electric eel) Type V-S (C2888-1K); purchased Sigma Aldrich, Germany C2888-1K
Method: (§1) To assess the inhibitory activity of H. polyspherula extract, fractions and isolated compounds towards AChE and BuChE, Ellman’s spectrophotometric method was followed ([Ellman et al. 1961]) using purified AChE from Electrophorus electricus (electric eel) Type V-S (C2888-1K), and BuChE from equine serum lyophilized powder (C7512-1.2KU) all from Sigma Aldrich, Germany. The reaction took place in a final volume of 200 μL of a (140 μL to 160 μL) 100 mM phosphate-buffered solution at pH 7.5 for AChE and 8.0 for BuChE, containing (20 μL) 0.2 U of AChE or 0.1 U of BuChE. Inhibition curves were made by pre-incubating this mixture with six concentrations of each sample (20 μL) for 15 min. A sample with no compound (blank) was present to determine the 100% of enzyme activity. After the pre-incubation period, ten microlitre (10 μL) of 10 mM of 5,5′-dithiobis-2-nitrobenzoic acid (DTNB, D8130 Sigma Aldrich, Germany) was added prior to 14 mM (10 μL) acetylthiocholine iodide (A5751) or 14 Mm butyrylthiocholine iodide (B3253-5G) source from Sigma Aldrich, Germany) were added, DTNB produces yellow anion 5-thio-2-nitrobenzoic acid along with the enzymatic degradation of ATChI or BuTChI. Changes in absorbance were detected at 412 nm in a 96 well spectrophotometric microplate reader (Bostch Biotek) after 30 min. […] Data are analysed using excel, graph pad prism 9.0.0 and expressed as means ± SD of at least three different experiments in triplicate.
(§2) (3) % inhibition=[…]/Abs (blank)×100

BuChE from equine serum = target: T2, BuChE from equine serum (Equus caballus, UniProt P81908); experiment: biochemical; format: biochemical; details: for SI (selectivity index for BuChE): IC50 (AChE)/ IC50 (BuChE)
T2 construct: BuChE from equine serum lyophilized powder (C7512-1.2KU); purchased Sigma Aldrich, Germany C7512-1.2KU; host or cells: equine serum
Method: as §1, §2

[2] = IC50 AChE, pure compounds (μM for the pure compound)
[3] = IC50 BuChE, pure compounds (μM for the pure compound)
[4] = pure compounds (μM for the pure compound)

T2 sequence (P81908 whole entry): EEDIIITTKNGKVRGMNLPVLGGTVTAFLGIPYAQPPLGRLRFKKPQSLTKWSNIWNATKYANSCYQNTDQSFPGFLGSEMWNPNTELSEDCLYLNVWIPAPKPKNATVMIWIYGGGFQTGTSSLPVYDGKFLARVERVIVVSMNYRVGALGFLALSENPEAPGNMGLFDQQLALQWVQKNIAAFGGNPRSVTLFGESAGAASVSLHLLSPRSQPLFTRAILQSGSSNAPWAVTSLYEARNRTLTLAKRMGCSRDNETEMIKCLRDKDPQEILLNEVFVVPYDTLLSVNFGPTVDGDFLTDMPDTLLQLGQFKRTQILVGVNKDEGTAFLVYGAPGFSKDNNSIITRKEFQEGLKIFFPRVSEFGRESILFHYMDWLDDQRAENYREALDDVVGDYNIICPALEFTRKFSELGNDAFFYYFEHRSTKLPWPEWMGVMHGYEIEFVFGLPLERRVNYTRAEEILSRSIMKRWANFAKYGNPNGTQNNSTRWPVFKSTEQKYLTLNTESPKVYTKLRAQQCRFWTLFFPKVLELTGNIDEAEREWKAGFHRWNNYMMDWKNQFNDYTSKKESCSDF
T1 sequence (O42275 24-633): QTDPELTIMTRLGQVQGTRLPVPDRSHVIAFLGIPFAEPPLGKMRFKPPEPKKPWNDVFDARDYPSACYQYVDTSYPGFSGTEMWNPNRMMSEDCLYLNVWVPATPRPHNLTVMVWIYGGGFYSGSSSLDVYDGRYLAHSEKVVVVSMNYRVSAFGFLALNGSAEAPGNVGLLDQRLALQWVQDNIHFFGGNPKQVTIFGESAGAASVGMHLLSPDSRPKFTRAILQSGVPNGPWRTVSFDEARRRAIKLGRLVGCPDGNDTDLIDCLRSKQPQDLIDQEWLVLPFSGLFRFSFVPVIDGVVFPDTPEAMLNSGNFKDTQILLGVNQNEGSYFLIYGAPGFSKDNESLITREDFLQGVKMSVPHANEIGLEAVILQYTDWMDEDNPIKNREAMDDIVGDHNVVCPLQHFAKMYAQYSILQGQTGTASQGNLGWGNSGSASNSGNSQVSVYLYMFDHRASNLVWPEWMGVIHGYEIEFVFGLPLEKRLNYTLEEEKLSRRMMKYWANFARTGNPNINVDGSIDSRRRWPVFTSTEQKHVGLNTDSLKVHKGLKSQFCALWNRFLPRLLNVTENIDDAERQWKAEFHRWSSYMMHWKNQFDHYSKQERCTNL

Row | SMILES | IC50 of DPPH free radical scavenging activity (DPPH radical scavenging) [µg/mL] | SI (selectivity index for AChE) [1] | SI (selectivity index for BuChE) (BuChE from equine serum) | IC50 [1, 2] [µM] | IC50 (BuChE from equine serum; [3]) [µM] | other results
1 | O=C1O[C@H]([C@@H](O)CO)C(O)=C1O [Ascorbic acid, reference compound] | 4.21 ± 0.13 | – | – | – | – | –
2 | O=C(O)CCCCCCCCCCCCCCCc1ccccc1 [Compound 1, 16-phenylhexadecanoic acid] | – | 0.88 | 1.14 | – | – | IC50 ([1]; pure compounds (μM for the pure compound), read-out: IC50 AChE): 46.8 ± 2.44 µM; IC50 (BuChE from equine serum; pure compounds (μM for the pure compound), read-out: IC50 BuChE): 41 ± 1.99 µM
3 | CCCCCCCCCCCc1ccccc1 [Compound 2, Undecylbenzene] | – | 0.95 | 1.05 | 246.1 ± 1.4 | 234 ± 4.78 | –
4 | O=C(O)c1ccc(O)c(O)c1 [Compound 3, 3,4-dihydroxybenzoic acid] | 6.56 ± 0.02 | 0.71 | 1.41 | 327 ± 6.83 | 232 ± 8.37 | –
5 | CCCCCCCCCCCCCC(=O)OCC(COC(=O)CCCCCCCCCCCCC)OC(=O)CCCCCCCCCCCCC [Compound 9, Trimyristin] | – | – | – | – | – | IC50 AChE [1, 4]: no inhibitory activities; IC50 BuChE (BuChE from equine serum; [4]): no inhibitory activities
6 | CNC(=O)Oc1ccc2c(c1)[C@]1(C)CCN(C)[C@@H]1N2C [Eserine, reference compound] | – | – | – | – | – | % inhibition BuChE (BuChE from equine serum; control, tested at 0.2 μM): 44.45 ± 0.23%
